Laboratory results from US10233426B2, “Method for inducing cardiac differentiation of pluripotent stem cell with low-molecular compounds” (KYOTO UNIVERSITY, priority 2014, dated 2019).

What was measured:
[1] = Induction of cardiac differentiation by a procedure as described in the Examples in WO 2012/026491; assay type: cell-based
[2] = tested on: mesoderm-related genes (MSGN1, T, MIXL1 and NODAL); assay: Quantitative PCR for expression of mesoderm-related genes under PFCD condition; assay type: cell-based, human; conditions: IMR90-1; 1 μM XAV939, 0.3 μM A419259, 10 μM AG1478, 3 μM KY03-I, day 3 to day 4; mRNA on day 4; FIG. 3f
Method: A human iPS cell line (IMR90-1 cultured on MEF feeder) was cultured in PFCD culture media, to which 2 μM CHIR99021 or 0.3 μM PMA or the both (CHIR99021+PMA) were added for early phase of cardiac differentiation (day 0 to day 2). On day 2, mRNA was extracted the cultured cells and analyzed by quantitative PCR for the expression of mesoderm-related genes (MSGN1, T, MIXL1 and NODAL) (FIG. 3e). As a control, cells were cultured similarly, but with DMSO in place of the test compounds. The gene expression level in the control cells was assigned to one. […] In contrast, the expression of the genes was reduced when PMA was added to the culture. However, the reduction in gene expression by PMA was counteracted and reversed when CHIR99021 was added in combination with PMA (in accordance with the optimal PFCD condition).
A human iPS cell line (IMR90-1 from culture on MEF feeder) was cultured in PFCD media with one of 1 μM XAV939, 0.3 μM A419259, 10 μM AG1478 or 3 μM KY03-I, or all of them (XAV939+A419259+AG1478+KY03-I) in late phase of cardiac differentiation (day 3 to day 4). On day 4, mRNA was extracted from the cultured cells and analyzed by quantitative PCR for the expression of mesoderm-related genes (MSGN1, T, MIXL1 and NODAL) (FIG. 3f).

[3] = tested on: monkey ES cell line transfected with an αMHC promoter-driven GFP gene; assay: Chemical screening: GFP fluorometry for cardiac differentiation of monkey ES cells; assay type: cell-based, cynomolgus monkey; conditions: for intensity of GFP fluorescence relative to control culture (KY02111 only, assigned to one): GFP fluorometry day 9
Method: Pluripotent stem cells were cultured in culture media to which the test compounds were added in different concentrations (0.3 μM, 1 μM, 3 μM and 10 μM) in early phase and late phase of differentiation of the cells. Cells from the culture were subjected to GFP fluorometry in accordance with the cardiac differentiation protocol shown in FIG. 1a. Besides the test compounds, 10 μM KY02111 was included in the culture media for the late phase differentiation. The intensity of GFP fluorescence determined in the cells from the control culture, which was cultured with no test compound other than KY02111, was assigned to one.
The scheme of chemical screening is illustrated in FIG. 1a. Compounds were screened for the ability of increasing GFP fluorescence compared with the control (KY02111 alone) using a monkey ES cell line transfected with an αMHC promoter-driven GFP gene (Minami et al., Cell Reports 2, 1448-1460, 2012, which is incorporated herein by reference). The ES cell line was derived from a monkey ES cell line (cynomolgus monkey CMK6.4) by transfecting the cells with a vector which expresses green fluorescent protein (GFP) under control by a promoter of α-MHC gene (a marker of cardiac differentiation). The cells were plated at 4.0×10^5 cells per well in 6 well plates (Asahi Glass/5816-006: Ezview culture plates) and cultured for nine days in an IMDM-based medium for cardiac differentiation (200 ml IMDM medium (Sigma 13390), with 50 ml calf serum (GIBCO 10099-141), 2.5 ml MEM non-essential amino acid solution (Sigma M7145), 2.5 ml penicillin-streptomycin ([…]), 2.5 ml 200 mM L-glutamine, 2 ul 2-mercaptoethanol (Sigma M7522), and 255 ul 5N NaOH). Each test compound was added to the medium at different concentrations in the early phase (day 0 to day 3) and the late phase (day 4 to day 7) of cardiac differentiation. Cells obtained from the culture on day 9 were subjected to GFP fluorometry with a Metamorph imaging system. […]

[4] = test compound 0.3 μM in Early phase (day 0 to day 3), 10 μM KY02111 in late phase
[5] = test compound 0.3 μM in Late phase (day 4 to day 7) with 10 μM KY02111
[6] = test compound 1 μM in Early phase (day 0 to day 3), 10 μM KY02111 in late phase
[7] = test compound 1 μM in Late phase (day 4 to day 7) with 10 μM KY02111
[8] = test compound 3 μM in Early phase (day 0 to day 3), 10 μM KY02111 in late phase
[9] = test compound 3 μM in Late phase (day 4 to day 7) with 10 μM KY02111
[10] = test compound 10 μM in Early phase (day 0 to day 3), 10 μM KY02111 in late phase
[11] = test compound 10 μM in Late phase (day 4 to day 7) with 10 μM KY02111

SMILES	effect of inducing cardiac differentiation [1]	expression level of NODAL [2]	expression of MSGN1, T and MIXL1 [2]	intensity of GFP fluorescence relative to control culture (KY02111 only, assigned to one) [3, 4]	intensity of GFP fluorescence relative to control culture (KY02111 only, assigned to one) [3, 5]	intensity of GFP fluorescence relative to control culture (KY02111 only, assigned to one) [3, 6]	intensity of GFP fluorescence relative to control culture (KY02111 only, assigned to one) [3, 7]	intensity of GFP fluorescence relative to control culture (KY02111 only, assigned to one) [3, 8]	intensity of GFP fluorescence relative to control culture (KY02111 only, assigned to one) [3, 9]	intensity of GFP fluorescence relative to control culture (KY02111 only, assigned to one) [3, 10]	intensity of GFP fluorescence relative to control culture (KY02111 only, assigned to one) [3, 11]	increase of cardiac differentiation ([3]; 1 to 3 μM in late phase, alone or in combination with KY02111 (10 μM in late phase), FIG. 1e)	cardiac differentiation (screening conclusion) ([3]; under appropriate conditions, Table 1)
COc1ccc(CC(=O)Nc2nc3ccc(I)cc3s2)cc1OC [KY01-I, 2-(2-(3,4-dimethoxyphenyl)acetamido)-6-iodobenzothiazole]	found to have the effect of inducing cardiac differentiation	–	–	–	–	–	–	–	–	–	–	–	–
COc1ccc(CCC(=O)Nc2nc3ccc(I)cc3s2)cc1OC [KY02-I, 2-(3-(3,4-dimethoxyphenyl)propanamido)-6-iodobenzothiazole]	found to have the effect of inducing cardiac differentiation	–	–	–	–	–	–	–	–	–	–	–	–
Oc1nc(-c2ccc(C(F)(F)F)cc2)nc2c1CSCC2 [XAV939]	–	not significantly different	reduced	–	–	–	–	–	–	–	–	–	–
c1cc(-c2cnn3cc(-c4ccc(OCCN5CCCCC5)cc4)cnc23)ccn1 [Dorsomorphin]	–	–	–	0.13	0.96	0.03	1.67	0	1.22	0	0.89	–	–
Cc1c[nH]c(/C=C2\C(=O)Nc3ccccc32)c1CCC(=O)O [SU5402]	–	–	–	0.09	0.89	0	1	0	0.46	0	0.06	–	–
CC(C)(O)/C=C/C(=O)[C@](C)(O)[C@H]1[C@H](O)C[C@@]2(C)[C@@H]3CC=C4[C@@H](C=C(O)C(=O)C4(C)C)[C@]3(C)C(=O)C[C@]12C [Cucurbitaonl]	–	–	–	0.11	1.62	0	0	0	0	0	0	–	–
CN1CCN(C2CCC(n3cc(-c4ccc(Oc5ccccc5)cc4)c4c(N)ncnc43)CC2)CC1 (stereo not drawn) [A419259]	–	not significantly different	reduced	0.15	1.7	0.01	5.56	0	4.8	0	0.32	two- to five-fold	promoted
Cc1ccc(-n2nc(C(C)(C)C)cc2NC(=O)Nc2ccc(OCCN3CCOCC3)c3ccccc23)cc1 [BIRB796]	–	–	–	1.2	1.05	0.9	0.81	0.95	0.55	0.08	0.29	–	–
